Reference: patent publication EP2271935B1, “METHOD AND KIT FOR THE EX VIVO EVALUATION OF THE RESPONSE OF A TUMOR TO CONDITIONS TO BE TESTED” (Universität Leipzig, priority 2008, dated 2009)

Tested on: colonies of epithelial cells of head and neck squamous carcinoma
Experiment: ex vivo colony formation assay of collagenase-digested tumor samples, epithelial colonies counted after cytokeratin staining
Type: cell-based, human
Conditions: for Range from / Range to: concentrations with log-linear relation to response; for Range from / Range to / Cut-off concentrations Sample 1 / Cut-off concentrations Sample 2 / Cut-off concentrations Sample 3 / IC50 Sample 1 / IC50 Sample 2 / IC50 Sample 3: docetaxel (TPL = 0.55 µmol/l), 72 h
Experimental: Thereafter the tumors which usually have a size of about 0.1 to 1 ml were mechanically disintegrated by mincing to tissue pats of about 0.1 to 10 mm^3 and immersed each in 30 ml of pre-warmed riboflavin-free RPMI 1640 medium without phenol red and containing 14.5 mmol/l HEPES, 13.5 mmol/l NaHCO3, stabilized glutamine, 10% (v/v) fetal calf serum, the antibiotics penicillin, streptomycin and amikacin, as well as the antimycotic nystatin. The tumor cells were always handled at room temperature or warmer and never exposed to light other than the light of a sodium discharge lamp with an emission wavelength of 589 nm. Immediately after mechanical disintegration 120 U/ml collagenase type IV of Clostridium histolyticum (EC 3.4.24.3, type IV) were added and the mixture incubated for 16 h at 36.5°C in brown glass bottles in an incubator. To ensure optimal incubation conditions, the CO2 concentration therein was constantly kept at 3.5% and relative humidity at 95%. Following enzymatic disintegration by collagenase the digest was centrifuged for 10 min at 1200 rpm, the resulting pellets were carefully re-suspended in fresh culture medium supplemented as described but without collagenase. […] Ex-vivo testing was performed 72 h using the same culture conditions as during the collagenase digest.
After 72 hours of incubation, the wells were rinsed twice with phosphate buffered saline, pH 7.8, and the adherent cells and cell colonies were fixed with ice-cold 90% methanol for 10 min. Fixed specimens were exposed for 5 min to PBS/ 0.1% Tween-20® (Polysorbate 20) before preincubation with 1% serum in PBS/ 0.1% Tween-20 for 45 min, followed by overnight incubation at 4°C with the primary antibody (anti-cytokeratin; SantaCruz sc-8018, C11) diluted 1:400 in PBS/ 0.1% Tween-20 supplemented with 0.2 % serum. After three rinses for 10 min each with PBS/ 0.2 % Serum/ 0.1% Tween-20, specimens were incubated for another 2 h at room temperature in the dark with the secondary antibody (anti-mouse IgG coupled with Cy2 or Cy3 fluorescence dye, Jackson ImmunoResearch, Cambs, UK) in a 1:400 dilution in PBS/ 0.2 % Serum/ 0.1 % Tween-20 followed by three rinses with PBS/ 0.2 % Serum/ 0.1 % Tween-20, and a final rinse with distilled water for 2 min. The test plate was air dried, and fluorescence signals were imaged with the Zeiss Axiovert 200M inverted fluorescence microscope (Zeiss, Jena, Germany) using Zeiss filter sets 44 and 43HE for Cy2 and Cy3, respectively. The evaluation of the colonies is possible using every given fluorescence microscope but is eased by the use of dedicated filter sets. […] The test is utilized by separately counting of colonies of different types (stained epithelial, unstained stromal cells), the numbers of colonies in the different treatments (e.g. doses of radiation or concentrations of chemotherapeutics) are recorded and kept for further analysis.
(§1) Freshly resected probes of head and neck squamous carcinoma of 14 untreated patients were investigated and treated if not stated otherwise as described in example 1. Three fragments were each excised from different tumor areas, weighed, and treated with collagenase as outlined in Example 1.
1.5 mg of tumor was applied to a well.
as §1, with “Example 1. Collagenase digests were exposed to concentrations in the range from 0.5- to 32-fold the tolerated plasma levels (TPL) of docetaxel: (TPL = 0.55 µmol/l).” for “Example 1.”

IC50 Sample 1 (Tumor-No. 1): 4.565 n-fold TPL
IC50 Sample 2 (Tumor-No. 1): 4.718 n-fold TPL
IC50 Sample 3 (Tumor-No. 1): 5.040 n-fold TPL
IC50 Sample 1 (Tumor-No. 2): 1.486 n-fold TPL
IC50 Sample 2 (Tumor-No. 2): 0.579 n-fold TPL
IC50 Sample 3 (Tumor-No. 2): 1.157 n-fold TPL
IC50 Sample 1 (Tumor-No. 3): 16.404 n-fold TPL
IC50 Sample 2 (Tumor-No. 3): 10.711 n-fold TPL
IC50 Sample 3 (Tumor-No. 3): 19.173 n-fold TPL
IC50 Sample 1 (Tumor-No. 4): 27.819 n-fold TPL
IC50 Sample 3 (Tumor-No. 4): 23.393 n-fold TPL
IC50 Sample 1 (Tumor-No. 5): 3.891 n-fold TPL
IC50 Sample 3 (Tumor-No. 5): 9.987 n-fold TPL
IC50 Sample 1 (Tumor-No. 6): 8.208 n-fold TPL
IC50 Sample 2 (Tumor-No. 6): 6.690 n-fold TPL
IC50 Sample 3 (Tumor-No. 6): 8.404 n-fold TPL
IC50 Sample 1 (Tumor-No. 7): 3.616 n-fold TPL
IC50 Sample 2 (Tumor-No. 7): 3.629 n-fold TPL
IC50 Sample 3 (Tumor-No. 7): 2.692 n-fold TPL
IC50 Sample 1 (Tumor-No. 8): 6.709 n-fold TPL
IC50 Sample 3 (Tumor-No. 8): 5.282 n-fold TPL
IC50 Sample 1 (Tumor-No. 9): 6.964 n-fold TPL
IC50 Sample 2 (Tumor-No. 9): 7.495 n-fold TPL
Compound: CC(=O)O[C@@]12CO[C@@H]1C[C@H](O)[C@@]1(C)C(=O)[C@H](O)C3=C(C)[C@@H](OC(=O)[C@H](O)[C@@H](NC(=O)OC(C)(C)C)c4ccccc4)C[C@@](O)([C@@H](OC(=O)c4ccccc4)[C@H]21)C3(C)C [docetaxel]
Range from (Tumor-No. 1): 2.0 n-fold TPL
Range to (Tumor-No. 1): 8.0 n-fold TPL
Range from (Tumor-No. 2): 0.5 n-fold TPL
Range to (Tumor-No. 2): 32.0 n-fold TPL
Range from (Tumor-No. 3): 2.0 n-fold TPL
Range to (Tumor-No. 3): 32.0 n-fold TPL
Range from (Tumor-No. 4): 4.0 n-fold TPL
Range to (Tumor-No. 4): 32.0 n-fold TPL
Range from (Tumor-No. 5): 0.5 n-fold TPL
Range to (Tumor-No. 5): 32.0 n-fold TPL
Range from (Tumor-No. 6): 2.0 n-fold TPL
Range to (Tumor-No. 6): 32.0 n-fold TPL
Range from (Tumor-No. 7): 2.0 n-fold TPL
Range to (Tumor-No. 7): 32.0 n-fold TPL
Range from (Tumor-No. 8): 1.0 n-fold TPL
Range to (Tumor-No. 8): 32.0 n-fold TPL
Range from (Tumor-No. 9): 0.5 n-fold TPL
Range to (Tumor-No. 9): 32.0 n-fold TPL
effect on number of epithelial colonies at low concentrations (concentrations ≤ TPL, seven tumors (No. 2, 3, 4, 5, 6, 8 and 9)): hormesis
Cut-off concentrations Sample 1 (Tumor-No. 1): 8 n-fold TPL
Cut-off concentrations Sample 2 (Tumor-No. 1): 8 n-fold TPL
Cut-off concentrations Sample 3 (Tumor-No. 1): 8 n-fold TPL
Cut-off concentrations Sample 1 (Tumor-No. 2): X (not more than 5 colonies at most have appeared at the highest dose rate)
Cut-off concentrations Sample 2 (Tumor-No. 2): X (not more than 5 colonies at most have appeared at the highest dose rate)
Cut-off concentrations Sample 3 (Tumor-No. 2): X (not more than 5 colonies at most have appeared at the highest dose rate)
Cut-off concentrations Sample 1 (Tumor-No. 3): X (not more than 5 colonies at most have appeared at the highest dose rate)
Cut-off concentrations Sample 2 (Tumor-No. 3): X (not more than 5 colonies at most have appeared at the highest dose rate)
Cut-off concentrations Sample 3 (Tumor-No. 3): X (not more than 5 colonies at most have appeared at the highest dose rate)
Cut-off concentrations Sample 1 (Tumor-No. 4): XX (more than 5 colonies have appeared at the highest dose rate)
Cut-off concentrations Sample 2 (Tumor-No. 4): X (not more than 5 colonies at most have appeared at the highest dose rate)
Cut-off concentrations Sample 3 (Tumor-No. 4): XX (more than 5 colonies have appeared at the highest dose rate)
Cut-off concentrations Sample 1 (Tumor-No. 5): X (not more than 5 colonies at most have appeared at the highest dose rate)
Cut-off concentrations Sample 2 (Tumor-No. 5): XX (more than 5 colonies have appeared at the highest dose rate)
Cut-off concentrations Sample 3 (Tumor-No. 5): X (not more than 5 colonies at most have appeared at the highest dose rate)
Cut-off concentrations Sample 1 (Tumor-No. 6): X (not more than 5 colonies at most have appeared at the highest dose rate)
Cut-off concentrations Sample 2 (Tumor-No. 6): X (not more than 5 colonies at most have appeared at the highest dose rate)
Cut-off concentrations Sample 3 (Tumor-No. 6): X (not more than 5 colonies at most have appeared at the highest dose rate)
Cut-off concentrations Sample 1 (Tumor-No. 7): 32 n-fold TPL
Cut-off concentrations Sample 2 (Tumor-No. 7): 32 n-fold TPL
Cut-off concentrations Sample 3 (Tumor-No. 7): 32 n-fold TPL
Cut-off concentrations Sample 1 (Tumor-No. 8): 32 n-fold TPL
Cut-off concentrations Sample 2 (Tumor-No. 8): 32 n-fold TPL
Cut-off concentrations Sample 3 (Tumor-No. 8): X (not more than 5 colonies at most have appeared at the highest dose rate)
Cut-off concentrations Sample 1 (Tumor-No. 9): X (not more than 5 colonies at most have appeared at the highest dose rate)
Cut-off concentrations Sample 2 (Tumor-No. 9): X (not more than 5 colonies at most have appeared at the highest dose rate)
Cut-off concentrations Sample 3 (Tumor-No. 9): X (not more than 5 colonies at most have appeared at the highest dose rate)
